Read-outs that look alike come from different tables or passages of the source. Where a SMILES comes first, the peptide text is derived from it. [ ]: non-standard residue; d: D form. Dolaproine = CO[C@@H]([C@@H]1CCCN1)[C@@H](C)C(=O)O; Dil = CC[C@H](C)[C@H](NC)[C@@H](CC(=O)O)OC; Phe(ol) = N[C@H](CO)Cc1ccccc1; NMeV = CN[C@H](C(=O)O)C(C)C
How the values were obtained:
[1] = test system: WM266-4 (malignant melanoma cell line); experiment: In vitro cytotoxicity, XTT assay, 8 days incubation; type: cell-based; settings: read-out: IC50 MW266 (8 days)
From the text: (§1) The exemplary dolastatin 10 analog, Dolas-Ol, was subjected to an in vitro assay to test its cytotoxicity towards two cancerous cell lines: WM266-4 (malignant melanoma cell line)) and HCT116 (human colon cancer cell line). The study was design to assess the activity of a dolastatin 10 analog, according to some embodiments of the present invention, compared to other dolastatin 10 derivatives known in the art, Auristatin F, Auristatin F-Ol and Dolastatin-CO2H.
(§2) All samples contained DMSO at final concentration<0.05%. Cells cultures were initiated in microplate wells at a concentration of 2-4×10^4 cells/well and the cells were allowed to adhere for 24 h incubation period. At this time the cells were washed, fresh medium containing different concentrations of the tested substances were added and the cells were incubated for additional 8 days. The medium was then removed, all the wells were washed with PBS and cultured for 24 hrs in fresh medium without drugs. The cells were washed again and given a fresh medium containing the XTT reagent and re-incubated for 2-4 h. Absorbence in the wells was measured with a TECAN Infinite M200 ELISA reader at both 480 and 680 nm e, the latter being the background absorbance. The absorbencies were normalized to the absorbance of cells grown in medium and solvent. All the tests were repeated three times in quadruplicates.

[2] = test system: HCT116 (human colon cancer cell line); experiment: as above; type: cell-based; settings: read-out: IC50 HC116 (8 days)
From the text: as §1, §2

[3] = test system: L1210 murine leukemia cells; settings: L1210 murine leukemia cells in culture; read-out: IC50 value for cell growth; cited from earlier work
tubulin [4] = settings: purified tubulin in glutamate; read-out: IC50 for the polymerization of purified tubulin in glutamate; cited from earlier work
tubulin [5] = settings: cited from earlier work
[6] = test system: cell lines with overexpressed SSTR2 versus HEK; settings: 1 μM; SSTR2 overexpressing cell lines versus HEK with low expression
Protocol: HC116, H1299 and TRAMP C2 cells that overexpressed SSTR2 were incubated for 3 hours with 1 μM doses of the conjugates, according to some embodiments of the present invention, and then the cells were washed and proceed for incubation for the following 8 days. At the end of incubation for 8 days, the metabolic activities of cells were measured using the XTT assay.

[7] = test system: HEK (low SSTR2 expression); experiment: Growth inhibition by Dolas-Ol conjugates, XTT assay, negative control cells; type: cell-based; settings: 1 μM, 3 hours exposure, then 8 days
Protocol: (§3) Table 2 presents the growth inhibition values of octreotide amide, conjugates 8b-d in the cell cultures calculated according to the concentration of 1 μM. The calculation for all values is provided relative to control 100% of GI (for all values, p<0.01).

[8] = test system: HC116 cells that overexpressed SSTR2; experiment: Growth inhibition by Dolas-Ol conjugates, XTT assay; type: cell-based; settings: 1 μM, 3 hours exposure, then 8 days
Protocol: as §3

[9] = test system: H1299 cells that overexpressed SSTR2; experiment: as above; type: cell-based; settings: 1 μM, 3 hours exposure, then 8 days
Protocol: as §3

[10] = test system: TRAMP C2 cells that overexpressed SSTR2; experiment: as above; type: cell-based; settings: 1 μM, 3 hours exposure, then 8 days
Protocol: as §3

Compound: CC[C@H](C)[C@@H]([C@@H](CC(=O)N1CCC[C@H]1[C@H](OC)[C@@H](C)C(=O)N[C@H](CO)Cc1ccccc1)OC)N(C)C(=O)[C@@H](NC(=O)[C@@H](NC)C(C)C)C(C)C [Auristatin F- O1] (H-[NMeV]V[Dil][Dolaproine][Phe(ol)])
- IC50 ([1]; Homo sapiens, WM 266-4, 192 h): 58.82 ± 0.05 nM
- IC50 ([2]; Homo sapiens, HCT-116, 192 h): 29.71 ± 0.04 nM

Compound: CO[C@@H](/C(C)=C/C=C/C(C)=C/c1coc(C)n1)[C@@H](C)[C@@H]1C[C@H](O)[C@@]2(C)O[C@@H]2/C=C/[C@@H](C)[C@H]2C[C@H](CC(=O)O2)C[C@@H]2O[C@H]2C(=O)O1 [rhizoxin]
- IC50 [3]: 1 nM
- IC50 (tubulin [4]): 6800 nM

Compound: COc1cc2cc(c1Cl)N(C)C(=O)C[C@H](OC(=O)[C@H](C)N(C)C(C)=O)[C@]1(C)O[C@H]1[C@H](C)[C@@H]1C[C@@](O)(NC(=O)O1)[C@H](OC)/C=C/C=C(\C)C2 [maytansine]
- IC50 [3]: 0.5 nM
- IC50 (tubulin [4]): 3500 nM

Compound: CC[C@H](C)[C@@H]([C@@H](CC(=O)N1CCC[C@H]1[C@H](OC)[C@@H](C)C(=O)N[C@@H](Cc1ccccc1)c1nccs1)OC)N(C)C(=O)[C@@H](NC(=O)[C@H](C(C)C)N(C)C)C(C)C [Dolastatin 10]
- IC50 [3]: 0.5 nM
- inhibition of the binding of radiolabeled vinblastine and vincristine to tubulin (tubulin [5]): strongest inhibitor
- IC50 (tubulin [4]): 1200 nM

Compound: C[C@@H](O)[C@H](NC(=O)[C@@H]1CSSC[C@H](NC(=O)[C@H](N)Cc2ccccc2)C(=O)N[C@@H](Cc2ccccc2)C(=O)N[C@H](Cc2c[nH]c3ccccc23)C(=O)N[C@@H](CCCCN)C(=O)N[C@@H]([C@@H](C)O)C(=O)N1)C(N)=O [Octreotide amide]
- cytotoxicity (in words) [6]: not cytotoxic
- growth inhibition, HEK as negative control [7]: 7.9%
- growth inhibition, HC116-8 days [8]: 6.1%
- growth inhibition, H1299-8 days [9]: 8.4%
- growth inhibition, TRAMP C2-8 days [10]: 6.5%

Compound: (2S)-2-((S)-2-(dimethylamino)-3-methylbutanamido)-N-((3R,4S,5S)-1-((2S)-2-((1R,2R)-3-((1-(5-(hydroxymethyl)thiazol-2-yl)-2-phenylethyl)amino)-1-methoxy-2-methyl-3-oxopropyl)pyrrolidin-1-yl)-3-methoxy-5-methyl-1-oxoheptan-4-yl)-N,3-dimethylbutanamide [Dolas-O1]
- IC50 [1]: 2.24 ± 0.03 nM
- IC50 [2]: 3.67 ± 0.03 nM

Compound: CC[C@]1(O)C[C@@H]2CN(CCc3c([nH]c4ccccc34)[C@@](C(=O)OC)(c3cc4c(cc3OC)N(C)[C@H]3[C@@](O)(C(=O)OC)[C@H](OC(C)=O)[C@]5(CC)C=CCN6CC[C@]43[C@@H]65)C2)C1 [vinblastine]
- IC50 [3]: 20 nM

Compound: C=C(C)[C@@H]1NC(=O)[C@@H](NC)[C@@H](O)c2cc(Cl)c(O)c(c2)O[C@](C)(CC)[C@@H](C(=O)N2CC=C[C@H]2C(=O)N/C(C(=O)N/C(=C/C(=O)O)C(=O)O)=C(\C)CC)NC1=O [phomopsin A]
- IC50 [3]: 7000 nM
- IC50 (tubulin [4]): 1400 nM

Compound: CC[C@H](C)[C@@H]([C@@H](CC(=O)N1CCC[C@H]1[C@H](OC)[C@@H](C)C(=O)N[C@@H](Cc1ccccc1)c1nc(C(=O)O)cs1)OC)N(C)C(=O)[C@@H](NC(=O)[C@H](C(C)C)N(C)C)C(C)C [Dolastatin- CO2H]
- IC50 ([1]; Homo sapiens, WM 266-4, 192 h): 31.75 ± 0.02 nM
- IC50 ([2]; Homo sapiens, HCT-116, 192 h): 52.5 ± 0.03 nM

Compound: CC[C@H](C)[C@@H]([C@@H](CC(=O)N1CCC[C@H]1[C@H](OC)[C@@H](C)C(=O)N[C@@H](Cc1ccccc1)C(=O)O)OC)N(C)C(=O)[C@@H](NC(=O)[C@@H](NC)C(C)C)C(C)C (H-[NMeV]V[Dil][Dolaproine]F-OH)
- IC50 ([1]; Homo sapiens, WM 266-4, 192 h): 15.59 ± 0.03 nM
- IC50 ([2]; Homo sapiens, HCT-116, 192 h): 18.27 ± 0.06 nM

— US20230000995A1, “DOLASTATIN 10 ANALOG” (Ariel Scientific Innovations Ltd., priority 2020, published 2023)
